Source: ChEMBL document CHEMBL1127761, “Two new phospholipase d inhibitors, sch 49211 and sch 49212, produced by the fungus nattrasia mangirferae” (Bioorg Med Chem Lett, 1994)

Test system: HL-60
Test: In vitro inhibitory activity against phospholipase D (PLD) activation in HL-60 cells by phospholipase D assay
Type: cell-based
Settings: Homo sapiens

## O=C1C(O)=CC2(Oc3cccc4cccc(c34)O2)[C@@]23O[C@@]12[C@@H](O)C=C[C@H]3O
  IC50: 11 µM

## O=C1C(O)=CC2(Oc3cccc4cccc(c34)O2)[C@@]23O[C@@]12[C@@H](O)CC[C@H]3O
  IC50: 12 µM
